# According to ChEMBL document CHEMBL1137039, “Synthesis and structure-activity relationships of uracil derived human GnRH receptor antagonists: (R)-3-[2-(2-amino)phenethyl]-1-(2,6-difluorobenzyl)-6-methyluracils containing a substituted thiophene or thiazole at C-5” (Bioorg Med Chem Lett, 2004):
# System: not listed separately
# Experiment: In vitro intrinsic clearance after incubation with human liver microsomes (HLM)
# Format: ADME, Microsome
row,CLint scaled [mL/min/kg],Structure (SMILES)
1,46,Cc1c(-c2csc(-c3ccc(Cl)cc3)n2)c(=O)n(C[C@H](N)c2ccccc2)c(=O)n1Cc1c(F)cccc1F
2,1700,COc1cccc(-c2c(C)n(Cc3c(F)cccc3F)c(=O)n(C[C@@H](C)N(C)Cc3ccccn3)c2=O)c1
3,36,Cc1ccc(-c2nc(-c3c(C)n(Cc4c(F)cccc4F)c(=O)n(C[C@H](N)c4ccccc4)c3=O)cs2)cc1

# Target: T1, Gonadotropin-releasing hormone receptor (Homo sapiens, UniProt P30968)
# T1 sequence (P30968 whole entry): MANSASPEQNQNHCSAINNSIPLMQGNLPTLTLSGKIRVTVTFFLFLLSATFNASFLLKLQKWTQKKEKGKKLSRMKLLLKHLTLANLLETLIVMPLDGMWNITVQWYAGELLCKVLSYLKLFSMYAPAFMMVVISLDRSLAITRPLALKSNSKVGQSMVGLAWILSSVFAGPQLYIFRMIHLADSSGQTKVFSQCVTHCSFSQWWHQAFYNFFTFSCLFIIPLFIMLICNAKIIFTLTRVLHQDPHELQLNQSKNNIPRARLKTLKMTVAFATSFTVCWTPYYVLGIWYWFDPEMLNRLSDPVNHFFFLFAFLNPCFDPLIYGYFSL
# Experiment: Binding affinity towards cloned human Gonadotropin-releasing hormone receptor expressed in RBL cells was determined by using [125I]GnRH as radioligand
# Format: cell-based
row,Ki [nM],Structure (SMILES)
1,10,Cc1c(-c2cccs2)c(=O)n(C[C@H](N)c2ccccc2)c(=O)n1Cc1c(F)cccc1F
2,42,Cc1c(-c2csc(-c3ccc(F)cc3)n2)c(=O)n(C[C@H](N)c2ccccc2)c(=O)n1Cc1c(F)cccc1F
3,47,Cc1c(-c2csc(-c3ccc(C(F)(F)F)cc3)n2)c(=O)n(C[C@H](N)c2ccccc2)c(=O)n1Cc1c(F)cccc1F
4,35,Cc1c(-c2csc(NCc3ccccc3)n2)c(=O)n(C[C@H](N)c2ccccc2)c(=O)n1Cc1c(F)cccc1F
5,270,CCNc1nc(-c2c(C)n(Cc3c(F)cccc3F)c(=O)n(C[C@H](N)c3ccccc3)c2=O)cs1
6,210,Cc1ccccc1Nc1nc(-c2c(C)n(Cc3c(F)cccc3F)c(=O)n(C[C@H](N)c3ccccc3)c2=O)cs1
7,7,CCOC(=O)Nc1ccc(-c2nc(-c3c(C)n(Cc4c(F)cccc4F)c(=O)n(C[C@H](N)c4ccccc4)c3=O)cs2)cc1
8,120,Cc1nc(-c2c(C)n(Cc3c(F)cccc3F)c(=O)n(C[C@H](N)c3ccccc3)c2=O)cs1
9,20,Cc1c(-c2csc(-c3ccc4c(c3)CCO4)n2)c(=O)n(C[C@H](N)c2ccccc2)c(=O)n1Cc1c(F)cccc1F
10,130,COc1ccccc1Nc1nc(-c2c(C)n(Cc3c(F)cccc3F)c(=O)n(C[C@H](N)c3ccccc3)c2=O)cs1
11,15,Cc1c(-c2csc(-c3ccc(Cl)cc3)n2)c(=O)n(C[C@H](N)c2ccccc2)c(=O)n1Cc1c(F)cccc1F
12,500,Cc1c(-c2csc(-c3ccc(C(C)(C)C)cc3)n2)c(=O)n(C[C@H](N)c2ccccc2)c(=O)n1Cc1c(F)cccc1F
13,14,Cc1c(-c2ccc(Cl)cc2)c(=O)n(C[C@H](N)c2ccccc2)c(=O)n1Cc1c(F)cccc1F
14,9,Cc1c(-c2csc(Cc3ccccc3)n2)c(=O)n(C[C@H](N)c2ccccc2)c(=O)n1Cc1c(F)cccc1F
15,33,COc1ccc(Nc2nc(-c3c(C)n(Cc4c(F)cccc4F)c(=O)n(C[C@H](N)c4ccccc4)c3=O)cs2)cc1OC
16,150,Cc1c(-c2csc(-c3cccc(C(F)(F)F)c3)n2)c(=O)n(C[C@H](N)c2ccccc2)c(=O)n1Cc1c(F)cccc1F
17,70,Cc1c(-c2csc(Nc3ccccc3)n2)c(=O)n(C[C@H](N)c2ccccc2)c(=O)n1Cc1c(F)cccc1F
18,3000,Cc1c(-c2csc(N)n2)c(=O)n(C[C@H](N)c2ccccc2)c(=O)n1Cc1c(F)cccc1F
19,30,Cc1c(-c2csc(-c3ccccc3Cl)n2)c(=O)n(C[C@H](N)c2ccccc2)c(=O)n1Cc1c(F)cccc1F
20,18,Cc1ccc(-c2nc(-c3c(C)n(Cc4c(F)cccc4F)c(=O)n(C[C@H](N)c4ccccc4)c3=O)cs2)cc1
21,1500,Cc1c(-c2csc(N3CCOCC3)n2)c(=O)n(C[C@H](N)c2ccccc2)c(=O)n1Cc1c(F)cccc1F
22,2,Cc1c(-c2ccc(Cl)s2)c(=O)n(C[C@H](N)c2ccccc2)c(=O)n1Cc1c(F)cccc1F
23,26,Cc1c(-c2csc(-c3ccccc3)n2)c(=O)n(C[C@H](N)c2ccccc2)c(=O)n1Cc1c(F)cccc1F
24,160,Cc1c(-c2csc(Nc3ccc([N+](=O)[O-])cc3)n2)c(=O)n(C[C@H](N)c2ccccc2)c(=O)n1Cc1c(F)cccc1F
25,130,Cc1ccc(Nc2nc(-c3c(C)n(Cc4c(F)cccc4F)c(=O)n(C[C@H](N)c4ccccc4)c3=O)cs2)c(C)c1
26,49,Cc1ccc(-c2nc(-c3c(C)n(Cc4c(F)cccc4F)c(=O)n(C[C@H](N)c4ccccc4)c3=O)cs2)cc1F
27,42,COc1ccc(Nc2nc(-c3c(C)n(Cc4c(F)cccc4F)c(=O)n(C[C@H](N)c4ccccc4)c3=O)cs2)cc1
28,34,Cc1c(-c2csc(N(C)c3ccccc3)n2)c(=O)n(C[C@H](N)c2ccccc2)c(=O)n1Cc1c(F)cccc1F
29,49,Cc1ccc(Nc2nc(-c3c(C)n(Cc4c(F)cccc4F)c(=O)n(C[C@H](N)c4ccccc4)c3=O)cs2)cc1
30,3,Cc1ccc(-c2c(C)n(Cc3c(F)cccc3F)c(=O)n(C[C@H](N)c3ccccc3)c2=O)s1
